{"source": "patent US12116592B2", "about": "“Methods and compositions for ex vivo expansion of very small embryonic-like stem cells (VSELs)” (University of Louisville Research Foundation, Inc., priority 2016, dated 2024)", "key": {"[1]": {"test_system": "Human UCB-derived VSELs (CD133^+/lin^−/CD45^− cells)", "assay": "Ex vivo expansion of human UCB-derived VSELs", "format": "cell-based", "details": "VPA (1 mM), LH (10 U/ml), FSH (10 U/ml), TGFβ (10 ng/ml) in D-MEM, 10% FBS; at 2 months", "description": "Human UCB-derived VSELs were isolated by multi-parameter sorting using a MOFLOW™ XDP sorter (Beckman Coulter, Inc.). Small CD133^+/lin^−/CD45^− cells were plated in 96 well plates in D-MEM medium supplemented with 10% FBS in the presence of VPA (1 mM), LH (10 U/ml), FSH (10 U/ml) and transforming growth factor beta (TGFβ; 10 ng/ml). Cells were cultured for two (2) months in a humidified incubator at 37° C., 5% CO2. Fresh medium was added every 7 days."}, "[2]": {"test_system": "Sca-1^+/lin^−/CD45^− murine bone marrow VSELs", "assay": "Ex vivo expansion of murine VSELs", "format": "cell-based", "details": "1 mM VPA with 10 U/ml LH and 10 U/ml FSH in D-MEM, 5% FBS; feeder-free; at 2 months", "description": "Murine VSELs were isolated by multi-parameter sorting using a MOFLOW™ XDP sorter (Beckman Coulter, Inc., Indianapolis, Indiana, United States of America). Highly purified Sca-1^+/lin^−/CD45^− murine bone marrow VSELs were cultured in D-MEM culture medium containing 5% fetal bovine serum (FBS) supplemented with 10 U/ml luteinizing hormone (LH) and 10 U/ml follicle-stimulating hormone (FSH) in a humidified incubator maintained at 37° C. with 5% CO2. VSELs were exposed to the HDAC inhibitor valproic acid (VPA; Sigma Aldrich, St. Louis, Missouri, United States of America) at a concentration of 1 mM. The cultures were supplemented with fresh LH and FSH every third day. The cultures were maintained for approximately two (2) months."}}, "data": [{"smiles": "CCCC(CCC)C(=O)O", "note": "[VPA, valproic acid]", "values": [{"measurement": "average expansion of sorted purified human VSELs as compared to day 0", "setting": "[1]", "value": "32±5", "unit": "fold"}, {"measurement": "average expansion of sorted purified murine VSELs as compared to day 0", "setting": "[2]", "value": "21±3", "unit": "fold"}]}]}
